# Tested on: 361931-004-R-J1-PDC multicell spheroid viability
# Assay: Anticancer human tumor 361931-004-R-J1-PDC patient-derived colon adenocarcinoma cell line growth inhibition [PI3K]
# Conditions: for IC50: curve of first compound; for viability, T/C: stronger effect = lower value
# Outline: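 Agents were dosed from a top concentration near clinical Cmax (otherwise 10 microM) in half-log decrements, alone or combined with PI3K inhibitors. The spheroids contain tumor cells plus endothelial (HUVEC) and MSC stroma; viability is measured.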
# [1] = second compound 0.0316 µM, first compound 0.0316 µM
# [2] = second compound 0.0316 µM, first compound 0.1 µM
# [3] = second compound 0.1 µM, first compound 0.0316 µM
# [4] = second compound 0.1 µM, first compound 0.1 µM
# [5] = second compound 0.316 µM, first compound 0.0316 µM
# [6] = second compound 0.316 µM, first compound 0.1 µM
# [7] = second compound 1 µM, first compound 0.0316 µM
# [8] = second compound 1 µM, first compound 0.1 µM
# [9] = second compound 3.16 µM, first compound 0.0316 µM
# [10] = second compound 3.16 µM, first compound 0.1 µM
# [11] = second compound 10 µM, first compound 0.0316 µM
# [12] = second compound 10 µM, first compound 0.1 µM
# 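Further: spheroids exposed to agents for seven days before readout.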
smiles,measurement,setting,value
CC(C)NCC(C(=O)N1CCN(c2ncnc3c2C(C)CC3O)CC1)c1ccc(Cl)cc1 (centres undefined) + CC(Nc1ncnc2nc[nH]c12)c1cc2cccc(Cl)c2c(=O)n1-c1ccccc1,IC50,second compound 0.0316 µM,3510 nM
same,IC50,second compound 0.1 µM,3260 nM
same,IC50,second compound 0.316 µM,2910 nM
same,IC50,second compound 1 µM,4190 nM
same,IC50,second compound 3.16 µM,2990 nM
same,IC50,second compound 10 µM,3190 nM
same,"viability, T/C",[1],99.7%
same,"viability, T/C",[2],97.3%
same,"viability, T/C","second compound 0.0316 µM, first compound 0.316 µM",99%
same,"viability, T/C","second compound 0.0316 µM, first compound 1 µM",78%
same,"viability, T/C","second compound 0.0316 µM, first compound 3.16 µM",52.6%
same,"viability, T/C","second compound 0.0316 µM, first compound 10 µM",34.3%
same,"viability, T/C",[3],104%
same,"viability, T/C",[4],99.3%
same,"viability, T/C","second compound 0.1 µM, first compound 0.316 µM",99.8%
same,"viability, T/C","second compound 0.1 µM, first compound 1 µM",81.3%
same,"viability, T/C","second compound 0.1 µM, first compound 3.16 µM",50.8%
same,"viability, T/C","second compound 0.1 µM, first compound 10 µM",31.7%
same,"viability, T/C",[5],101%
same,"viability, T/C",[6],104%
same,"viability, T/C","second compound 0.316 µM, first compound 0.316 µM",94%
same,"viability, T/C","second compound 0.316 µM, first compound 1 µM",79.1%
same,"viability, T/C","second compound 0.316 µM, first compound 3.16 µM",47.4%
same,"viability, T/C","second compound 0.316 µM, first compound 10 µM",29.8%
same,"viability, T/C",[7],106%
same,"viability, T/C",[8],104%
same,"viability, T/C","second compound 1 µM, first compound 0.316 µM",95%
same,"viability, T/C","second compound 1 µM, first compound 1 µM",86.1%
same,"viability, T/C","second compound 1 µM, first compound 3.16 µM",54.8%
same,"viability, T/C","second compound 1 µM, first compound 10 µM",31.9%
same,"viability, T/C",[9],105%
same,"viability, T/C",[10],107%
same,"viability, T/C","second compound 3.16 µM, first compound 0.316 µM",98.3%
same,"viability, T/C","second compound 3.16 µM, first compound 1 µM",79.6%
same,"viability, T/C","second compound 3.16 µM, first compound 3.16 µM",48.6%
same,"viability, T/C","second compound 3.16 µM, first compound 10 µM",26.8%
same,"viability, T/C",[11],106%
same,"viability, T/C",[12],93.9%
same,"viability, T/C","second compound 10 µM, first compound 0.316 µM",102%
same,"viability, T/C","second compound 10 µM, first compound 1 µM",76.7%
same,"viability, T/C","second compound 10 µM, first compound 3.16 µM",51.5%
same,"viability, T/C","second compound 10 µM, first compound 10 µM",26.7%
CC(C)n1nc(-c2ccc3oc(N)nc3c2)c2c(N)ncnc21 + CC(Nc1ncnc2nc[nH]c12)c1cc2cccc(Cl)c2c(=O)n1-c1ccccc1,IC50,second compound 0.0316 µM,> 100 nM
same,IC50,second compound 0.1 µM,> 100 nM
same,IC50,second compound 0.316 µM,> 100 nM
same,IC50,second compound 1 µM,> 100 nM
same,IC50,second compound 3.16 µM,> 100 nM
same,IC50,second compound 10 µM,> 100 nM
same,"viability, T/C","second compound 0.0316 µM, first compound 0.000316 µM",103%
same,"viability, T/C","second compound 0.0316 µM, first compound 0.001 µM",107%
same,"viability, T/C","second compound 0.0316 µM, first compound 0.00316 µM",105%
same,"viability, T/C","second compound 0.0316 µM, first compound 0.01 µM",104%
same,"viability, T/C",[1],108%
same,"viability, T/C",[2],77.9%
same,"viability, T/C","second compound 0.1 µM, first compound 0.000316 µM",111%
same,"viability, T/C","second compound 0.1 µM, first compound 0.001 µM",106%
same,"viability, T/C","second compound 0.1 µM, first compound 0.00316 µM",104%
same,"viability, T/C","second compound 0.1 µM, first compound 0.01 µM",99.1%
same,"viability, T/C",[3],107%
same,"viability, T/C",[4],81.5%
same,"viability, T/C","second compound 0.316 µM, first compound 0.000316 µM",98.2%
same,"viability, T/C","second compound 0.316 µM, first compound 0.001 µM",103%
same,"viability, T/C","second compound 0.316 µM, first compound 0.00316 µM",108%
same,"viability, T/C","second compound 0.316 µM, first compound 0.01 µM",109%
same,"viability, T/C",[5],115%
same,"viability, T/C",[6],74.8%
same,"viability, T/C","second compound 1 µM, first compound 0.000316 µM",97.4%
same,"viability, T/C","second compound 1 µM, first compound 0.001 µM",105%
same,"viability, T/C","second compound 1 µM, first compound 0.00316 µM",104%
same,"viability, T/C","second compound 1 µM, first compound 0.01 µM",107%
same,"viability, T/C",[7],105%
same,"viability, T/C",[8],72.3%
same,"viability, T/C","second compound 3.16 µM, first compound 0.000316 µM",109%
same,"viability, T/C","second compound 3.16 µM, first compound 0.001 µM",106%
same,"viability, T/C","second compound 3.16 µM, first compound 0.00316 µM",100%
same,"viability, T/C","second compound 3.16 µM, first compound 0.01 µM",96.2%
same,"viability, T/C",[9],100%
same,"viability, T/C",[10],72.4%
same,"viability, T/C","second compound 10 µM, first compound 0.000316 µM",107%
same,"viability, T/C","second compound 10 µM, first compound 0.001 µM",107%
same,"viability, T/C","second compound 10 µM, first compound 0.00316 µM",107%
same,"viability, T/C","second compound 10 µM, first compound 0.01 µM",104%
same,"viability, T/C",[11],103%
same,"viability, T/C",[12],63.5%
